According to publication PMC3285241 (ACS chemical neuroscience, 2011):
Read-outs that look alike come from different tables or passages of the source.

Key:
[1] = molecular target: Cav3.2 channel expressed in HEK293 cells (Homo sapiens, UniProt O95180); assay: T-type calcium channel cell-based FDSS Ca2+ flux
[2] = Intrinsic clearance in rat liver microsomes; conditions: obtained from rat liver microsomes
[3] = test system: haloperidol-induced catalepsy in rats; assay: Haloperidol-induced catalepsy; format: in vivo, rat; conditions: 1, 3, 10 and 30 mg/kg p.o.; haloperidol 0.75 mg/kg; comparable to A2A inhibitor 56.6 mg/kg p.o.
[4] = test system: T-type calcium currents in STN neurons; assay: Brain slice voltage clamp, T-type calcium current in STN neurons; format: cell-based, rat
[5] = test system: 68 GPCRs, ion channels and transporters; assay: Ricerca Lead Profiling Screen; conditions: 10 μM; significant = inhibition of radio ligand binding > 50%
sigma 1 = sigma 1 (Homo sapiens, UniProt Q99720); assay: Ricerca Lead Profiling Screen, sigma 1; format: binding; conditions: 10 μM
[6] = Brain and plasma concentrations across the catalepsy dose range; format: in vivo; conditions: rat
sodium channel site 2 = assay: Ricerca Lead Profiling Screen, sodium channel site 2; format: binding; conditions: 10 μM
N-type calcium channels = N-type calcium channels (Rattus norvegicus, UniProt Q02294); assay: Ricerca Lead Profiling Screen, N-type calcium channel; format: binding; conditions: read-out: % inhibition, N-type calcium channels
in vitro [7] = conditions: human, plasma, pH 7.4
[8] = test system: rebound burst activity in STN neurons; assay: Brain slice current clamp, rebound burst activity in STN neurons; format: cell-based, rat
[9] = test system: low threshold spike (LTS) in STN neurons; assay: Brain slice current clamp, low threshold spike; format: cell-based, rat; conditions: 3 uM with 0.5 uM TTX, n = 5; control 18.1 ± 2.2 mV
[10] = Plasma-brain exposure profile PK study; format: in vivo; conditions: male, Sprague-Dawley, rat, intraperitoneal, 10 mg/kg
P450 2C9 = P450 2C9 (Homo sapiens, UniProt P11712); assay: P450 inhibition 2C9
P450 2D6 = P450 2D6 (Homo sapiens, UniProt P10635); assay: P450 inhibition 2D6
in vitro [11] = conditions: rat, plasma, pH 7.4
hERG = hERG (Homo sapiens, UniProt Q12809); assay: Ricerca Lead Profiling Screen, hERG; format: binding
L-type calcium channels = assay: Ricerca Lead Profiling Screen, L-type calcium channel; format: binding; conditions: @10 μM
in vivo = conditions: male, Sprague-Dawley, rat, plasma, iv, 1 mg/kg
P450 1A2 = molecular target: T1, P450 1A2 (Homo sapiens, UniProt P05177); assay: P450 inhibition 1A2
T1 sequence (P05177 1-516): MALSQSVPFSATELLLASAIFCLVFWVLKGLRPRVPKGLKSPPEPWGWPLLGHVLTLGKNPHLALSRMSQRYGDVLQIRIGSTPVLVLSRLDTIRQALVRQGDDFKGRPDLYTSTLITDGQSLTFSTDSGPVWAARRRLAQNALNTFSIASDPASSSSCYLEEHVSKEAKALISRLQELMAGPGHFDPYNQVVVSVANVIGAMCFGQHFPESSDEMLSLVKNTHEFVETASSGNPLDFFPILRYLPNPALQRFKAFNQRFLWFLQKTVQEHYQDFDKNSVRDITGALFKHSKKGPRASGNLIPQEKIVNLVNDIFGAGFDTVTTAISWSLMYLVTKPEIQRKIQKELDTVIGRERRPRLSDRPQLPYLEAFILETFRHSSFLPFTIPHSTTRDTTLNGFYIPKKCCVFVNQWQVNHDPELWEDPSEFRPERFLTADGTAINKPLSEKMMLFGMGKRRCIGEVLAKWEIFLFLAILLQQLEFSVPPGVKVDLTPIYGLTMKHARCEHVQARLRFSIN

in vitro [12] = conditions: rat, liver microsomes, pH 7.4
Cav3.3 = Cav3.3 (Homo sapiens, UniProt Q9P0X4); assay: Cav3.3 IonWorks Quattro population patch clamp electrophysiology; format: cell-based
in vitro [13] = conditions: human, liver microsomes, pH 7.4
[14] = no reference given; cited from earlier work
Cav3.2 = Cav3.2 (Homo sapiens, UniProt O95180); assay: Cav3.2 IonWorks Quattro population patch clamp electrophysiology; format: cell-based; conditions: Cav3 subtype not stated
[15] = read-out: IC50 in Ca2+ fluorescence assay, Cav3.2 HEK293, full CRC

Chain of Cav3.2 channel expressed in HEK293 cells (O95180 whole entry): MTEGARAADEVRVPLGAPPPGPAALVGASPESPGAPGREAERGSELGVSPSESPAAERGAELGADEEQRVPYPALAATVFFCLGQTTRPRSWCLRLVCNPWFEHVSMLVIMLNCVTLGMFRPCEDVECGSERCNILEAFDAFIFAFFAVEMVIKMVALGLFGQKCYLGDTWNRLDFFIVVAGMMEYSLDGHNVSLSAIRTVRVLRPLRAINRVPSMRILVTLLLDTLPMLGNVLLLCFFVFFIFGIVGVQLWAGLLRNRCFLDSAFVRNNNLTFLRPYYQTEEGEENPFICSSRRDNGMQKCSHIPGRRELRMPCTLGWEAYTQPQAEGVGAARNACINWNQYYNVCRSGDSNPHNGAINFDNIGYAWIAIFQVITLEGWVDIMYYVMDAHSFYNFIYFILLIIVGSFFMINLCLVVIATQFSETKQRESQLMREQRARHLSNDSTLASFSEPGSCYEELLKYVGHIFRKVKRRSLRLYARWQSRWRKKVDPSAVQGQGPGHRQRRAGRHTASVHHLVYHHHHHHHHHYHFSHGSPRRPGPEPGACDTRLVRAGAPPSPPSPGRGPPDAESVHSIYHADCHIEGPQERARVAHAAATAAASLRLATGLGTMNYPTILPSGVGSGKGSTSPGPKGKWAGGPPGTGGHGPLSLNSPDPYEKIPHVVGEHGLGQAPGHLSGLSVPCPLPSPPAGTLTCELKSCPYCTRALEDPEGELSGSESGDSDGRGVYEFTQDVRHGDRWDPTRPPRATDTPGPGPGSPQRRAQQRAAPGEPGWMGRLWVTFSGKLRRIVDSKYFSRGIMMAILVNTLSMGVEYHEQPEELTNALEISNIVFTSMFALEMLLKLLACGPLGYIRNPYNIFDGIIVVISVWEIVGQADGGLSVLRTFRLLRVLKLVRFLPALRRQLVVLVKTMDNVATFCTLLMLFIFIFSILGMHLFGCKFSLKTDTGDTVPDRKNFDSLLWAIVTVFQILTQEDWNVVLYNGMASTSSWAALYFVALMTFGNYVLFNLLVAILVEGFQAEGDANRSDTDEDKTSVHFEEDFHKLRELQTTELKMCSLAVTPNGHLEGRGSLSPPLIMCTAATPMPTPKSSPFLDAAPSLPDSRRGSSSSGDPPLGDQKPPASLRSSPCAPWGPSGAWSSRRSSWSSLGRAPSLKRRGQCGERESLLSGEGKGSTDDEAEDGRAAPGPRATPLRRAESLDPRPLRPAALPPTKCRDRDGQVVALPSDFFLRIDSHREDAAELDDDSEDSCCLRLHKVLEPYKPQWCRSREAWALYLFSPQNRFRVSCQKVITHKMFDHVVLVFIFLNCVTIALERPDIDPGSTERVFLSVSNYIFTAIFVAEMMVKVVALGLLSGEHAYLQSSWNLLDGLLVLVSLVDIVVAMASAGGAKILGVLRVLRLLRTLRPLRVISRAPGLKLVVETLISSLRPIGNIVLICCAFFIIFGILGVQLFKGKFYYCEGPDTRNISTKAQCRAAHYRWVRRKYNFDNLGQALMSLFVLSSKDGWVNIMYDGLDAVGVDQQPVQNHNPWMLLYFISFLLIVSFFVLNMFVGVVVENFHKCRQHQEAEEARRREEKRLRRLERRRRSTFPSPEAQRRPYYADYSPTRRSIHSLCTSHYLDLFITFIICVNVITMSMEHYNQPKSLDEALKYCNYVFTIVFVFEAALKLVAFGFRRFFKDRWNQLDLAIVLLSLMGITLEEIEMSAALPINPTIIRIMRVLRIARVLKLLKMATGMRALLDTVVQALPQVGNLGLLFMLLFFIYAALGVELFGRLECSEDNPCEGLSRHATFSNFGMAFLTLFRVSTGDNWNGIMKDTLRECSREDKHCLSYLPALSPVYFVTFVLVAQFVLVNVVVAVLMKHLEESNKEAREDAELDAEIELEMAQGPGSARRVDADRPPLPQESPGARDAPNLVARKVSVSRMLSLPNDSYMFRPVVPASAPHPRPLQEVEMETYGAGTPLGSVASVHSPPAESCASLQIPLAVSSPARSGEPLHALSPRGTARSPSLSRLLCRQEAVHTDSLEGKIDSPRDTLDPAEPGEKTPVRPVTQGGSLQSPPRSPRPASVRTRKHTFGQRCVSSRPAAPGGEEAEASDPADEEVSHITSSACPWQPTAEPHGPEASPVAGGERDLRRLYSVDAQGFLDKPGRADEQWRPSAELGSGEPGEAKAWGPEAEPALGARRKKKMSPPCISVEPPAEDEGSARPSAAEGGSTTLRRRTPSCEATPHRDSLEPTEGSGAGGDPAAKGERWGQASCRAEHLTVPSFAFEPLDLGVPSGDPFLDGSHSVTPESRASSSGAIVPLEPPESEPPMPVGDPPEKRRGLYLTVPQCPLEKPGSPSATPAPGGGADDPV
Chain of Cav3.2 (O95180 whole entry): as above
Chain of Cav3.3 (Q9P0X4 whole entry, species assumed): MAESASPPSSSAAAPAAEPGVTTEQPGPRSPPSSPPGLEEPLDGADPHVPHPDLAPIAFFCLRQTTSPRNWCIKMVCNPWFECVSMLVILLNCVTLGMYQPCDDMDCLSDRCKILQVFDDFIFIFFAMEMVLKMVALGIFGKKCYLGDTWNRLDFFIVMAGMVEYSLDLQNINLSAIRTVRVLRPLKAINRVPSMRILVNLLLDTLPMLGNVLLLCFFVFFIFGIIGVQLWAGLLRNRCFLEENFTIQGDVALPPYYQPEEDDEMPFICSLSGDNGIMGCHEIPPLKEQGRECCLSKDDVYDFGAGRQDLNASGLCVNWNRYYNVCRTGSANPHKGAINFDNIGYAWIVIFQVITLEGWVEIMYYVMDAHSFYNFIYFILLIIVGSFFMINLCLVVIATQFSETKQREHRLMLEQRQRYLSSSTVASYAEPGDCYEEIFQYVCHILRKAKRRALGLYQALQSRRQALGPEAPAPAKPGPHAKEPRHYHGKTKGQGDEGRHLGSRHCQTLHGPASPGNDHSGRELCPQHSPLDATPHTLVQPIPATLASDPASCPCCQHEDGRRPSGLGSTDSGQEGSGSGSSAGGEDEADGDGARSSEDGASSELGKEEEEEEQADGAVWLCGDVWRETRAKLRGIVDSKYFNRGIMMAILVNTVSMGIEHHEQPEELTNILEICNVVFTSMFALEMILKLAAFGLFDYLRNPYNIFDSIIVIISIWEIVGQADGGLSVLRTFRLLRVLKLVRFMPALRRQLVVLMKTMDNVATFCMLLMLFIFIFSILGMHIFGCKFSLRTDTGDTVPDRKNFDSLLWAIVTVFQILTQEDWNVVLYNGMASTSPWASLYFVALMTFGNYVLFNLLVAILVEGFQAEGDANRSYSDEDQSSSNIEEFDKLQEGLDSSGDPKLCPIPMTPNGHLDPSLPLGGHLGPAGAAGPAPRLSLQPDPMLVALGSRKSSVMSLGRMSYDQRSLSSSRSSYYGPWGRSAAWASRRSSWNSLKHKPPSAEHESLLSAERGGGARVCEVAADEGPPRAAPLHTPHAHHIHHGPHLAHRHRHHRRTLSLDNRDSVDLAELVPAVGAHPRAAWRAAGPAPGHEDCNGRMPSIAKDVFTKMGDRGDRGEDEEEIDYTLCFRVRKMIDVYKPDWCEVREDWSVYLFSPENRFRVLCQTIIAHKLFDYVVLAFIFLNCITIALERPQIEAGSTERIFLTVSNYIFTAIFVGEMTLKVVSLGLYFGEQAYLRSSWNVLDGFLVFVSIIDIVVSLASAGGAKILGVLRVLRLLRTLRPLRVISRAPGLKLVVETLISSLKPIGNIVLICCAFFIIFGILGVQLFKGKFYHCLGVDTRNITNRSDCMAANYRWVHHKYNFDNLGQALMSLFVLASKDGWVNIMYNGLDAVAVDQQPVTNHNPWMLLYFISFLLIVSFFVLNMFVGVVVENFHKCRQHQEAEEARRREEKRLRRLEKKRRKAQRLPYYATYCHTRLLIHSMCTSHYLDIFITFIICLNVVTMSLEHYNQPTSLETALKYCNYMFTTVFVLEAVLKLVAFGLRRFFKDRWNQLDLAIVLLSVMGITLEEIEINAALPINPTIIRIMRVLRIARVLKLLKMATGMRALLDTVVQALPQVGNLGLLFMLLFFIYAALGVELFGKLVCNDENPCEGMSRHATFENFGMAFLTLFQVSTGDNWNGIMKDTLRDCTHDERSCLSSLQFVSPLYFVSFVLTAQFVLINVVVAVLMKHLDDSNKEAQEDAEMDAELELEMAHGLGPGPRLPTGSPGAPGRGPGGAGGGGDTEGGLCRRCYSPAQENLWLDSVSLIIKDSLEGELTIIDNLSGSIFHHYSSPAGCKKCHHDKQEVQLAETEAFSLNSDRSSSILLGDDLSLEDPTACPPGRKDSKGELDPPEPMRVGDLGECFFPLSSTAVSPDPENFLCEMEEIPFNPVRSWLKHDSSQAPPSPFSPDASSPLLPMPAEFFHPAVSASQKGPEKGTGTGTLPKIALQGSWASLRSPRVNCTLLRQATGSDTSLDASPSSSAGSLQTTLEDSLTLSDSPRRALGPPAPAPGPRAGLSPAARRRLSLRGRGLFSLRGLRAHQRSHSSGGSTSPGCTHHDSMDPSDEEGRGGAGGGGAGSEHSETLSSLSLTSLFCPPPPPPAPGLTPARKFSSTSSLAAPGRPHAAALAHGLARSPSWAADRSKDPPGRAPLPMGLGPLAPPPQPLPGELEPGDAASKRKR
Chain of P450 2D6 (P10635 whole entry): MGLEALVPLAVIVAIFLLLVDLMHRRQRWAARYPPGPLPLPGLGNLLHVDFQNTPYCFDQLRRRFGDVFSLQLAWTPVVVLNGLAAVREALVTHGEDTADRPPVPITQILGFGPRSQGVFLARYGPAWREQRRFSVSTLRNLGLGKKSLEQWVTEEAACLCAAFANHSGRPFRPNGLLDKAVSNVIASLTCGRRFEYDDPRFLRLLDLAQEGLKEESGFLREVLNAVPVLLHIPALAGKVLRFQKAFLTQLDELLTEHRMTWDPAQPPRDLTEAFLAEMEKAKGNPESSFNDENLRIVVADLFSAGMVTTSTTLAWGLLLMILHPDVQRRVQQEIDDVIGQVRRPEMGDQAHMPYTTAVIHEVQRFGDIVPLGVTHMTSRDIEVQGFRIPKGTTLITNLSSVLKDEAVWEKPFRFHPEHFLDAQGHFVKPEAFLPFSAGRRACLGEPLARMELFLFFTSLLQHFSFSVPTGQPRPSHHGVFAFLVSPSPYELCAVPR

CC(C)(C)CCN1CCC[C@@H](NC(=O)COc2ccc(F)cc2Cl)C1 [CID45115614]
T-type Ca2+ channel inhibition, result in words ([1]; 3-amino piperidine library): devoid of activity

CC(C)(C)CCN1CC2C(CNC(=O)c3cc(Cl)cc(Cl)c3)C2C1 (stereo not shown) [ML218, 3,5-dichloro-N-((3-(3,3-dimethylbutyl)-3-azabicyclo[3.1.0]hexan-6-yl)methyl)benzamide]
predicted hepatic clearance CLHEP [2]: 43 mL/min/kg | Reversal of haloperidol-induced catalepsy [3]: reversed cataleptic behavior | T-currents, % of the control value ([4]; 3 uM, n = 7): 45.1 ± 5.1% | Reduction of T-type Ca2+ current ([4]; 3 μM, voltage clamp, bath application): ~ 45% | Number of targets significantly bound in 68-assay panel [5]: only significantly bind two targets | Binding to sigma 1 (sigma 1): significantly bind | IC50 [1]: 150 nM | [brain] ([6]; 3 mg/kg p.o.): 1.66 µM | [plasma] ([6]; 3 mg/kg p.o.): 98 nM | [brain] ([6]; 10 mg/kg p.o.): 5.03 µM | [plasma] ([6]; 10 mg/kg p.o.): 282 nM | [brain] ([6]; 30 mg/kg p.o.): 17.7 µM | [plasma] ([6]; 30 mg/kg p.o.): 1200 nM | Binding to sodium channel site 2 (sodium channel site 2): significantly bind | inhibition at 10 µM (N-type calcium channels): 49% | fraction unbound at 4 h (in vitro [7]): 0.033 | Depression of rebound burst activity ([8]; 3 μM, -100 pA followed by depolarizing current): > 60% | Number of rebound spikes ([8]; 3 uM, n = 6, control 16.0 ± 2.8 spikes/burst): 5.7 ± 0.5 spikes/burst | Amplitude of LTS [9]: 8.7 ± 2.1 mV | Kp [10]: 7.4 | IC50 (P450 2C9): > 30000 nM | IC50 (P450 2D6): 1700 nM | fraction unbound at 4 h (in vitro [11]): 0.091 | inhibition at 10 µM (hERG): 48% | % inhibition, L-type calcium channels (L-type calcium channels): 17% | MRT (in vivo): ~7 h | clearance (in vivo): 56 mL/min/kg | half-life (in vivo): 7 h | IC50 (P450 1A2): 10800 nM | CLint scaled at 1 μM (in vitro [12]): 115 mL/min/kg | IC50 (Cav3.3): 274 nM | CLint scaled at 1 μM (in vitro [13]): 12.7 mL/min/kg

COCC(=O)O[C@]1(CCN(C)CCCc2nc3ccccc3[nH]2)CCc2cc(F)ccc2[C@@H]1C(C)C [compound 3, mibefradil]
Penetration into CNS [14]: poor penetration into CNS

CC(C)(C)Cc1nnc(NC(=O)COc2ccc(Cl)cc2Cl)o1 [compound 18]
Potency in patch EP relative to Ca2+ fluorescence, in words (Cav3.2): significant right-shift in potency | IC50 [1, 15]: 810 nM

CC(C)(C)CCN1CCC[C@H](NC(=O)COc2ccc(F)cc2Cl)C1 [compound 23]
IC50 [1, 15]: 2400 nM
